According to patent publication US20240076347A1, “METHODS FOR PREVENTING FUNGAL INFECTIONS” (Cidara Therapeutics, Inc., priority 2016, published 2024):
Several values for one entry are separate records, joined by “and”; a condition that tells them apart may be missing. Equal values may be shown once. Numbered stars: 1 amine (or outer) side, 2 acyl side, 3 side chain; on linkers, the order of the positions; unused ones are H or OH. Bridge positions count the residues as written; N and C are the ends. Square brackets hold non-standard residues; d marks the D form. Peptide text beside a SMILES is read from it. * marks the point of attachment. ξ: configuration not given here. Orn(4R-OH,5R-OCH2CH2NMe3+) = C[N+](C)(C)CCO[C@@H](N[*:3])[C@H](O)C[C@H](N[*:1])C(=O)[*:2]; hTyr(3S-OH,4S-OH,3'-OSO3H) = N[C@H](C(=O)O)[C@H](O)[C@@H](O)c1ccc(O)c(OS(=O)(=O)O)c1; pTerphenylCO(4''-OnC5H11) = CCCCCOc1ccc(-c2ccc(-c3ccc(C(=O)*)cc3)cc2)cc1; Orn(4R-OH,5R-OH) = O=C([C@H](C[C@@H](O)[C@@H](O)N[*:3])N[*:1])[*:2]; hTyr(3S-OH,4S-OH) = N[C@H](C(=O)O)[C@H](O)[C@@H](O)c1ccc(O)cc1; Pro(3S-OH,4S-Me) = C[C@H]1CN[C@H](C(=O)O)[C@H]1O; X2 = CCCCCOc1ccc(-c2cc(-c3ccc(C(=O)*)cc3)no2)cc1; Gln(3R-OH) = NC(=O)C[C@@H](O)[C@H](N)C(=O)O; X1 = C[C@H]1CN([*:1])C(C(=O)[*:2])C1O; Hyp = O=C(O)[C@@H]1C[C@@H](O)CN1; ξT = CC(O)C(N)C(=O)O

Experiments:
[1] = system: Candida albicans SC5314; experiment: Immunocompetent DBA/2 mouse model of disseminated candidiasis, treatment, kidney CFU; assay type: in vivo; conditions: 24 hr
Experimental: The efficacy of CD101 SC was studied in an immunocompetent DBA/2 mouse model of disseminated candidiasis. Mice (5/grp) were challenged with Candida albicans SC5314 (ATCC: MYA-2876, fluconazole-sensitive human clinical isolate shown to be pathogenic in mice) via IV injection (100 μL, 5.0 log CFU/mouse) and treated with CD101 SC (1, 3 or 10 mg/kg). Micafungin via IP administration was tested as a positive control at the same 3 doses. At 24 hours following challenge, kidneys were harvested and processed for CFU enumeration. All comparisons were made between the treatment and time-matched vehicle groups.

[2] = system: Aspergillus fumigatus strain AF293; experiment: Murine model of pulmonary aspergillosis (Example 16), survival and lung burden; assay type: in vivo; conditions: for Mean Survival / Median Survival / survival time post infection, range / mice that survived to the end of the study: Day −1; for Group Geometric mean / Log10 Group Geometric mean / Log10 reduction from vehicle control: terminal lung burden; for mice that survived to the end of the study: 6 mice per group, 10 days
Experimental: Animal strain and housing. Mice used in these studies were supplied by Charles River (Margate UK) and were specific pathogen free. The strain of mice used was ICR (also known as CD1 Mice) which is a well characterized outbred murine strain. Male mice were 11-15 g on receipt and allowed to acclimatize for at least 7 days.
Immunosuppression. Mice were immunosuppressed on Day −4 with 150 mg/kg cyclophosphamide administered intraperitoneally (IP), and on Day −1 with 150 mg/kg cyclophosphamide IP and 175 mg/kg cortisone acetate administered subcutaneously (SC). To prevent bacterial infection due to the immunosuppression mice were given once daily 50 mg/kg ceftazidime.
Preparation of Organism and Infection. A. fumigatus strain AF293 inoculum was prepared from spore cultures grown on Sabouraud Dextrose agar (SAB) containing 50 μg/mL chloramphenicol (SABC) in vented tissue culture flasks. Following incubation for 7-10 days at 30° C., spore cultures were washed in sterile phosphate buffered saline (PBS) containing 0.05% Tween 80. Spore count was determined using a haemocytometer and spores were diluted in PBS to ˜6.9×10^6 CFU/mL. Inoculum concentration was confirmed by quantitative culture onto SABC agar.
Neutropenic mice lungs were infected with 0.04 mL (0.02 mL/nare) of ˜4.17×10^6 CFU/mL (˜1.67×10^5 CFU/mouse) of A. fumigatus AF293 by intranasal (IN) instillation under temporary 2.5% isoflurane induced anesthesia.
Preparation of Test Articles. Micafungin (Mycamine, Astellas) was provided as a 50 mg vial (Lot 02323002, expiry 08/2017) and was prepared as per manufacturer's instructions by adding 5 mL saline for injection (SFI) directly into the vial to make up a 10 mg/mL stock solution. This solution was then diluted further in SFI to a working concentration of 0.5 mg/mL. […] It was prepared fresh once and stored at 4° C. until required.
Posaconazole (Noxafil 40 mg/mL oral suspension, Merck Sharp & Dohme Limited) was provided as a 40 mg/mL oral suspension (Lot N00801, expiry 04/2019). This suspension was then diluted further in water for infection (WFI) to a working concentration of 0.2 and 1 mg/mL. The suspension was administered orally (PO) at 10 mL/kg for 2 and 10 mg/kg doses respectively, was prepared fresh once and stored at 4° C. until required.
Test article CD101 stock was prepared at 6 mg/mL in 10% DMSO/1% Tween 20 diluent. A clear non particulate solution was obtained following gentle mixing. […] All doses were administered IP at 10 mL/kg. The study doses were kept at 4° C. until required.
Treatment. For this study, treatments were initiated on Day 1 pre infection according to treatment groups outlined in Table 22. A total of 36 mice (6/treatment group) were used in the study.
Endpoints. The primary endpoint for this study was survival within agreed ethical limits (>20% weight loss, severe hypothermia <34° C., inability to reach food or drink, severe hunching). Mice were monitored by daily weight measurements with observations as frequently as clinical condition required.
Mice presenting with severe clinical deterioration were humanely euthanized using an overdose of pentobarbitone administered by IP injection following clinical assessment and the time of death was recorded. Animal carcasses were stored at −20° C. before quantitative assessment of burden.
Ten days post infection all surviving animals were weighed and had their clinical condition assessed prior to being euthanized. Final survival numbers were recorded and analysed as described below and carcasses frozen at −20° C. prior to further processing.
Lung burden. A secondary endpoint for the study was terminal lung tissue burden. Immediately following confirmation of death, carcasses were frozen at −20° C. prior to tissue dissection and processing. The frozen carcasses were thawed at room temperature, the lungs removed and placed into pre-weighed bead-beating tubes containing 2 mL of PBS and subjected to mechanical disruption. […]

CCCCCOc1ccc(-c2cc(-c3ccc(C(=O)N[C@H]4C[C@@H](O)[C@@H](O)NC(=O)[C@@H]5[C@@H](O)[C@@H](C)CN5C(=O)[C@H]([C@H](O)CC(N)=O)NC(=O)[C@H]([C@H](O)[C@@H](O)c5ccc(O)c(OS(=O)(=O)O)c5)NC(=O)[C@@H]5C[C@@H](O)CN5C(=O)[C@H]([C@@H](C)O)NC4=O)cc3)no2)cc1 [Micafungin, micafungin, reference compound] (X2-[Orn(4R-OH,5R-OH)]T[Hyp][hTyr(3S-OH,4S-OH,3'-OSO3H)][Gln(3R-OH)][Pro(3S-OH,4S-Me)]; lactam 1-C)
kidney CFU ([1]; 10 mg/kg IP only): complete clearance | kidney CFU ([1]; 1, 3 and 10 mg/kg IP): good dose response in CFU reduction | Mean Survival ([2]; 5 mg/kg IP once): 92 h and 92.0 h | Median Survival ([2]; 5 mg/kg IP once): 80 h and 80.0 h | survival time post infection, range ([2]; 5 mg/kg IP once): 71 to 162 h | survival vs vehicle (conclusion) ([2]; 5 mg/kg once one day pre-infection): did not show any improvement in survival | Group Geometric mean ([2]; 5 mg/kg IP Day −1): 6.61 × 10^3 CFU/g | Log10 Group Geometric mean ([2]; 5 mg/kg IP Day −1): 3.82 CFU/g | Log10 reduction from vehicle control ([2]; 5 mg/kg IP Day −1): 0.35 CFU/g

CCCCCOc1ccc(-c2ccc(-c3ccc(C(=O)N[C@H]4C[C@@H](O)[C@@H](OCC[N+](C)(C)C)NC(=O)C5C(O)[C@@H](C)CN5C(=O)[C@H]([C@@H](C)O)NC(=O)[C@H]([C@H](O)[C@@H](O)c5ccc(O)cc5)NC(=O)[C@@H]5C[C@@H](O)CN5C(=O)C(C(C)O)NC4=O)cc3)cc2)cc1 (stereo partly drawn) [CD101] ({pTerphenylCO(4''-OnC5H11)}-[Orn(4R-OH,5R-OCH2CH2NMe3+)][ξT][Hyp][hTyr(3S-OH,4S-OH)]T[X1]; lactam 1-C)
animals completely cleared of CFU burden ([1]; 1 mg/kg SC): 4 of 5 | kidney CFU ([1]; 1, 3 and 10 mg/kg SC, vs vehicle): significant reduction in kidney CFU | kidney CFU ([1]; 3 or 10 mg/kg SC): complete CFU clearance | Mean Survival ([2]; 20 mg/kg IP once): 130.4 h | Median Survival ([2]; 20 mg/kg IP once): 74.7 h | survival time post infection, range ([2]; 20 mg/kg IP once): 70 to 240 h | mice that survived to the end of the study ([2]; 20 mg/kg IP once): Two | Mean Survival ([2]; 60 mg/kg IP once): 122.7 h | Median Survival ([2]; 60 mg/kg IP once): 88.7 h | survival time post infection, range ([2]; 60 mg/kg IP once): 73-240 | mice that survived to the end of the study ([2]; 60 mg/kg IP once): A single mouse | survival vs vehicle (conclusion) ([2]; 20 and 60 mg/kg once one day pre-infection): slight increase in survival, which was statistically longer than the vehicle treatment | Group Geometric mean ([2]; 20 mg/kg IP Day −1): 4.37 × 10^3 CFU/g | Log10 Group Geometric mean ([2]; 20 mg/kg IP Day −1): 3.64 CFU/g | Log10 reduction from vehicle control ([2]; 20 mg/kg IP Day −1): 0.53 CFU/g | Group Geometric mean ([2]; 60 mg/kg IP Day −1): 1.38 × 10^4 CFU/g | Log10 Group Geometric mean ([2]; 60 mg/kg IP Day −1): 4.14 CFU/g | Log10 reduction from vehicle control ([2]; 60 mg/kg IP Day −1): 0.03 CFU/g
